Tested on: IFN-γ and IL-4 in plasma
Experiment: Cytokine content in mouse plasma after intravenous administration of glycolipid (Cytometric Bead Array)
Type: in vivo, C57BL/6 mice
Conditions: tail vein, 100 μg/kg body weight, plasma up to 60 hr (FIG. 1, FIG. 2)
Protocol: Solutions of each of KRN7000, RCAI-147, RCAI-151, and RCAI-160 in dimethyl sulfoxide (DMSO) at a concentration of 1 mg/mL were prepared. The above-mentioned DMSO solutions were diluted 5-fold with 0.5% Tween 20 (Bio-Rad)-containing phosphate buffer (Invitrogen) and further diluted 20-fold with phosphate buffer, such that the dose became 100 μg/kg body weight when 200 μL was administered per mouse from the tail vein.
To three C57BL/6 mice per group was injected each prepared solution (200 μL) of RCAI-147, RCAI-151 and RCAI-160 into the tail vein (administration of about 2 μg per mouse). As a control substance, KRN7000 was used, and a solution (200 μL) of KRN7000 prepared in the same manner such that the dose became 100 μg/kg body weight was injected into the tail vein. The blood (80 μL) immediately before administration, and after lapse of 1, 3, 6, 12, 24, 32, 48 and 60 hr was collected from orbital plexus venosus, and plasma was prepared.
The content of each cytokine in plasma immediately before and after administration of each glycolipid was measured by Cytometric Bead Array (CBA) system (BD Biosciences) which is one of the ELISA methods.
The measurement results (mean) and standard deviation thereof (STDEV) of the content of IFN-γ in plasma immediately before administration, and after lapse of 3, 6, 12, 24, 32, 48 and 60 hr are shown in FIG. 1. The measurement results (mean) and standard deviation thereof (STDEV) of the content of IL-4 in plasma immediately before administration, and after lapse of 1, 3, 6, 12 and 24 hr from the administration are shown in FIG. 2.

Structure (SMILES)	cytokine production induction activity (IFN-γ / IL-4 bias) as compared to KRN7000
CCCCCCCCCCCCCCCCCCCCCCC[C@@H](O)[C@@H](O)C(=O)N[C@@H](COC1OC(CO)C(O)C(O)C1O)[C@H](O)[C@H](O)[C@@H](O)[C@@H](O)CCCCCCCCCCCC (stereo partly drawn) [RCAI-147, (2S,3S,4S,5S,6S)-2-[(2′R,3′R)-2′,3′-(dihydroxy)hexacosanoylamino]-3,4,5,6-(tetrahydroxy)octadecyl α-D-galactopyranoside]	cytokine production induction activity biased to the IL-4 as compared to KRN7000
CCCCCCCCCCCCCCCCCCCCCC[C@@H](O)[C@@H](O)[C@@H](O)C(=O)N[C@@H](CO[C@H]1O[C@H](CO)[C@H](O)[C@H](O)[C@H]1O)[C@H](O)[C@H](O)CCCCCCCCCCCCCC [RCAI-160, (2S,3S,4R)-2-[(2′R,3′R,4′R)-2′,3′,4′-trihydroxyhexacosanoyl]amino-3,4-di-hydroxyoctadecyl α-D-galactopyranoside]	cytokine production induction activity biased to the IL-4 as compared to KRN7000
CCCCCCCCCCCCCCCCCCCCCCC[C@@H](O)[C@@H](O)C(=O)N[C@@H](COC1OC(CO)C(O)C(O)C1O)[C@H](O)[C@H](O)CCCCCCCCCCCCCC (stereo partly drawn) [RCAI-151, (2S,3S,4R)-3,4-dihydroxy-2-[(2′R,3′R)-2′,3′-dihydroxyhexacosanoylamino]octadecyl α-D-galactopyranoside]	cytokine production induction activity biased to the IL-4 as compared to KRN7000

Reference: patent US9464105B2, “Hydroxylated KRN7000 analogue and use thereof” (RIKEN, priority 2012, dated 2016)
